# Measurements published in article PMC7938888, “Antidepressant drugs act by directly binding to TRKB neurotrophin receptors” (Cell, 2021).
# How the values were obtained:
# mice [1] = experiment: Object location memory (OLM) test; format: in vivo, mouse; details: wild-type mice, R,R-HNK
# Procedure: Object-location memory (OLM): this test was performed in a square arena (28cm side) with opaque walls containing cues (black stripes or spots). The adult male and female mice (18-22 weeks old) were placed for 3 consecutive days (15min per session) in the arena with two identical objects (table tennis balls glued to caps of 50ml Falcon tubes) in the same position throughout the sessions (pretest).
# TRKB [2] = molecular target: T1, TRKB (Mus musculus, UniProt P15209); experiment: Cell-free ligand binding assay on immobilised TRKB from HEK293T lysates; design: wild-type GFP-tagged full length TRKB or the GFP-tagged Y433F TRKB mutant; host or cells: HEK293T; details: biotinylated FLX 1 μM
# Procedure: (§1) The cell-free assays (binding assays) were performed in white 96-well plates, based on the protocol used for western-blotting or ELISA ([Baeza-Raja et al., 2016]; [Das et al., 2015]). The plates were precoated with anti-GFP, anti-FLAG, anti-TRK or anti-TRKB antibody (1:1000) in carbonate buffer (pH 9.8), ON at 4°C. Following blocking with 3% BSA in PBS buffer (2 h at RT), 120 ug of total protein from each sample (of lysates from HEK293T cells transfected to overexpress GFP-TRKB.wt or GFP-TRKB.Y433F) were added and incubated overnight at 4°C under agitation. […] The luminescence was determined via HRP-conjugated streptavidin (1:10000, 1h, RT) activity reaction with ECL by a plate reader. The luminescence signal from blank wells (containing all the reagents but the sample lystates, substituted by the blocking buffer) was used as background. The specific signal was then calculated by subtracting the values of blank wells from the values of the samples with matched concentration of the biotinylated ligand. For Figure 2E, the precipitated TRKB.wt or Y433F was incubated with tritiated imipramine (0-30μM) and the radioactive emission of the ligand was determined by scintillation (OptiPhase Supermix cocktail: #1200-439; MicroBeta2, Perkin-Elmer). The scintillation signal from blank wells was used as background, and the specific signal was then calculated by subtracting the values of blank wells from the values of the samples with matched concentration of the radioactive ligand.
# mice [3] = experiment: Ocular dominance plasticity (monocular deprivation, intrinsic signal imaging); format: in vivo, mouse
# Procedure: The “transparent skull” preparation was executed as described in literature ([Steinzeig et al., 2017]). Briefly, adult female mice (20-22 weeks old) were anesthetized via i.p. injection with a mixture containing: 0.05 mg/kg fentanyl (Hameln, Germany); 5 mg/kg midazolam (Hameln, Germany); 0.5 mg/kg medetomidine (Orion Pharma, Finland); diluted in saline (B Braun, Germany). The animals’ eyes were covered with protective-gel (Alcon, UK). The animal’s head was shaved and disinfected with ethanol and Betadine. The mouse head was then fixed on the stereotaxic frame and the temperature was maintained at 37°C. A mixture of lidocaine and adrenaline (Orion Pharma, Finland) was applied locally on the head and the skin was cut with spring scissors. The incision area was restricted 2 mm above the bregma and caudal edge of intraparietal bone. The scalp was removed and a focused air stream and a cotton swab were used to clean and stop bleeding. The periosteum was gently scratched away from the skull with an eye scalpel and the temporal muscles were pushed aside, in order to expose enough space around the area of interest to attach the metal holder. When the skull was smooth, white and dry, fat was removed from the skull rapidly by passing on it a cotton swab soaked in acetone and the air current was used to avoid its penetration into the bone. Then, with a metal stick, a thin layer of cyanoacrylate glue (Loctite 401, Henkel, Germany) was applied to the surface of the skull, in order to make the skull transparent. After waiting 10 minutes for the glue to dry, a first layer of acryl was applied on the skull surface with a brush. Acryl was used to prolong the life of the transparency and was prepared by stirring acrylic powder (EUBECOS, Germany) with methacrylate liquid (Densply, Germany) until a nail-polish consistency was reached. After 30 minutes, a second layer of acryl was applied and was left to dry overnight. Finally, the animals were injected s.c. with 5 mg/kg Carprofen (ScanVet, Nord Ireland) for postoperative analgesia and i.p. with a wake-up composed by: 1.2 mg/kg Naloxone (Orpha-Devel Handels und Vertriebs GmbH, Austria), opioid receptor antagonist; 0.5 mg/kg Flumazenil (Hameln, Germany), GABA-A receptor antagonist; 2.5 mg/kg Atipamezole (Vet Medic animal Health Oy, Finland), adrenergic receptor antagonist; diluted in saline (B Braun, Germany). The next day, isoflurane at 4% was used for a couple of minutes to induce the anesthesia and then it was reduced at 2% for the procedure. The acryl layer was polished only on the area of interest, using a hand drill with a polishing bit. […]
# Optical imaging. The saturation of haemoglobin in the primary visual cortex of the right hemisphere was measured to assess cortical activity ([Cang et al., 2005]; [Kalatsky and Stryker, 2003]). […]
# TRKB [4] = molecular target: T1, TRKB; experiment: Cell-free ligand binding assay on immobilised TRKB from HEK293T lysates; design: wild-type GFP-tagged full length TRKB or the GFP-tagged Y433F TRKB mutant; host or cells: HEK293T; details: biotinylated R,R-HNK (Figure 2E)
# [5] = tested on: GluR1 subunit of AMPA receptors; experiment: Surface GluR1 ELISA in cortical cells of TRKB.Y433F mice; format: cell-based, mouse
# Procedure: (§2) Briefly, the MG87.TRKB cells or primary cortical cells from rat or mouse embryos, cultivated in clear bottom 96-well plates (ViewPlate 96, Perkin Elmer), were washed with ice-cold PBS and fixed with 100μl of 4% PFA per well. […] Following washing, the samples were incubated with HRP-conjugated anti-goat or anti-rabbit IgG (1:5000 in blocking buffer) for 1h at RT. The cells were washed 4x with 200μl of PBS for 10 min each. Finally, the chemiluminescent signal generated by reaction with ECL was analyzed in a plate reader.
# TRKB:PLC-γ1 interaction = TRKB:PLC-γ1 interaction ELISA in cortical cells; format: cell-based, rat; details: rat cortical cells
# Procedure: The TRKB:pY (phosphorylated TRKB), TRKB:PLC-γ1, PLC-γ1:pTRKB.Y816 interactions and were determined by ELISA, based on the general method described in literature ([Antila et al., 2014]; [Fred et al., 2019]), with minor adjustments. Briefly, white 96-well plates (OptiPlate 96F-HB, Perkin Elmer) were coated with capturing anti-TRKB or PLC-γ1 antibody (1:1000) in carbonate buffer (pH = 9.8) overnight (ON) at 4°C. Following a blocking step with 2%BSA in TBS-T (2 h, RT), samples were incubated ON at 4°C. The incubation with antibody against pTRKB.Y816, PLC-γ1 or pY (1:2000, ON, 4°C) was followed by HRP-conjugated anti-Rb IgG (1:5000, 2h, RT) or HRP-conjugated streptavidin (1:10000, 2h, RT). Finally, the chemiluminescent signal generated by the reaction with ECL was analyzed in a plate reader (Varioskan Flash, Thermo Scientific).
# NMDA receptors = tested on: NMDA receptors; design: method as in Zanos et al., 2016, 2018; details: ref Zanos et al., 2016, 2018; cited from earlier work
# [6] = tested on: GluR1 subunit of AMPA receptors; experiment: Surface GluR1 ELISA in rat cortical cells; format: cell-based
# Procedure: as §2
# TRKB.Y433F = molecular target: T2, TRKB.Y433F (Mus musculus, UniProt P15209, Y433F); experiment: Cell-free ligand binding assay, TRKB.Y433F mutant; details: tritiated imipramine, biotinylated R,R-HNK
# T2 construct: wild-type GFP-tagged full length TRKB or the GFP-tagged Y433F TRKB mutant; host or cells: HEK293T
# Procedure: as §1
# T1 sequence (P15209 32-821): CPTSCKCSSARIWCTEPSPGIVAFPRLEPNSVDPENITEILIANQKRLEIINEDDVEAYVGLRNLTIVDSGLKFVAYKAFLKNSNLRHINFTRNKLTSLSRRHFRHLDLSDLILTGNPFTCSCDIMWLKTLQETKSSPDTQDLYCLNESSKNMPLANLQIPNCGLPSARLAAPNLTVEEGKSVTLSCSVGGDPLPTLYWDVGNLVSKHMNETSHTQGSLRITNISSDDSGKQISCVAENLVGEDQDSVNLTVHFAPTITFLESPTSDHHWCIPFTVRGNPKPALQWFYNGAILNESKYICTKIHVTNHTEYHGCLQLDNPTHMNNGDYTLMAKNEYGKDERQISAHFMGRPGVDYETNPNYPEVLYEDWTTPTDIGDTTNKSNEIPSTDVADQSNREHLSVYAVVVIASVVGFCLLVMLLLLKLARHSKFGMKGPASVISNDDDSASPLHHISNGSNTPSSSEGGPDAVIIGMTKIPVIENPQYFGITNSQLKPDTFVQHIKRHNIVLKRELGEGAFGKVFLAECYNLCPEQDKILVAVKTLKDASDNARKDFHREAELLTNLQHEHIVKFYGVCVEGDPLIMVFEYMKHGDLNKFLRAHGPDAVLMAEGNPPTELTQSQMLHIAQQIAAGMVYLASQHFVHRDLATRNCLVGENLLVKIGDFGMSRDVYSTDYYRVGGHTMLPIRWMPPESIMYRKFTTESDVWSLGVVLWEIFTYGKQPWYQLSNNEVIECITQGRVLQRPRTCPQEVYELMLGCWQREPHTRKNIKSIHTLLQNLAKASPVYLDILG
# T2 sequence (P15209 32-821 Y433F): as the sequence (P15209 32-821) above, with Y402F counted along it
smiles,measurement,setting,value
"N[C@@]1(c2ccccc2Cl)CCC[C@@H](O)C1=O [R,R-HNK, 2R,6R-hydroxynorketamine]",object location memory,mice [1],improved object location memory
same,displacement of biotinylated FLX from TRKB,TRKB [2],readily displaced
same,Ki,TRKB [2]; read-out: Ki for displacement of biotinylated FLX from TRKB,2230 nM
same,effect on shift in ocular dominance,mice [3]; TRKB.Y433F mice,lost
same,shift in ocular dominance after 7-day monocular deprivation,"mice [3]; adult mice, 10 mg/kg i.p. every second day for 8 days",significant shift in OD
same,effect on shift in ocular dominance,mice [3]; wild-type mice co-treated with pravastatin,lost
same,Kd,TRKB [4],1820 nM
same,increase in surface GluR1 in neurons from TRKB.Y433F mutant mice,[5],prevented
same,TRKB interaction with PLC-γ1,TRKB:PLC-γ1 interaction,increased TRKB interaction with PLC-γ1
same,affinity to NMDA receptors,NMDA receptors,low affinity
same,cell surface localization of GluR1 subunits of AMPA receptors,[6],increased cell surface localization of GluR1 subunits
same,affinity to TRKB.Y433F compared with wild-type TRKB,TRKB.Y433F,much lower than to the wild-type TRKB
